One series has as its system RKO. The experiment in a line: MTT assay, RKO colorectal cancer cells. It counts as cell-based. Particulars: 72 h; for inhibition at 1 µM / inhibition at 10 µM / inhibition at 100 µM: read-out: % cell growth inhibition. An excerpt: (§1) An MTT assay was used to evaluate the final compounds’ anticancer activity against MCF7 and T47D (breast cancer cells), HSC3 (head and neck cancer cells), and RKO (colorectal cancer cells) cell lines, using cisplatin as a reference standard. Table 1 presents the percentage growth inhibition of all compounds against the various cancer cell lines.
(§2) The cancer cell lines MCF7 and T47D (breast cancer cells), HSC3 (head and neck cancer cells), and RKO (colorectal cancer cells) were kindly provided by Prof. Stephan Feller, Institute of Molecular Medicine, Martin Luther University, Halle, Germany. The human fibroblast (PDL) cell line was obtained as a kind gift from Prof. Khaled Al-Qaoud (Yarmouk University, Irbid, Jordan). All cell lines were cultured in Dulbecco’s Modified Eagle’s Medium (DMEM) supplemented with 10% fetal bovine serum, 100 µg/mL streptomycin, 100 U/mL penicillin, and 1% non-essential amino acid at 37 °C with 5% CO2 in a humidified CO2 incubator. The cell cultures were grown to confluence, and the medium was changed two times weekly.
(§3) The MTT (3-[4,5-dimethylthiazol-2-yl]-2,5-diphenyl tetrazolium bromide) assay was used to investigate cell viability and to calculate the half-maximal inhibitory concentration (IC50) values of the compounds 6(a–k) including standard reference cisplatin. Furthermore, […] stock solutions of the compounds were prepared in DMSO where all compounds were completely soluble. Cells were seeded in 96-well tissue culture plates at a density of 6,000 cells/well for MCF7, T47D, and PDL cells and at a density of 4000 cells/well for RKO and HSC3 cells. After 24 h of seeding, investigated cells were treated with three concentrations (1, 10, and 100 µm) of the compounds for 72 h. At the end of the treatment time, the supernatant medium was aspirated, and 50 µL of fresh DMEM containing MTT (0.5 mg/mL) was added to each well. Cells were then incubated at 37 °C for 2–4 h. After that, the medium was completely removed, and 50 µL of DMSO was added to each well to dissolve the precipitated formazan crystals formed by viable cells. Cell viability, represented by the absorbance of the formazan solution, was measured at 570 nm using the Synergy HTX Multimode Reader (BioTek, Vermont, USA), and cell viability was determined as described in the literature. For each concentration, the relative cell viability was calculated as follows: relative cell viability = (mean treatment absorbance/mean control absorbance) × 100%. Assays were performed in triplicate on three independent experiments. […] IC50 values were then calculated using the four-parameter logistic function in the SigmaPlot software (version 12.5) and presented as the mean ± SD from three independent experiments.
In general terms: Formazan colour is commonly taken as a measure of viable cells.

The next series deals with T47D. The experiment in a line: MTT assay, T47D breast cancer cells. In kind it is cell-based. As to conditions: 72 h; for inhibition at 1 µM / inhibition at 10 µM / inhibition at 100 µM: read-out: % cell growth inhibition.
Excerpt: as §1, §2, §3

The subject of another series is PDL. In words: MTT assay, normal fibroblast cell line (PDL). In kind it is cell-based, human. Particulars: 72 h; for IC50: PDL normal fibroblasts.
Excerpt: To understand the selectivity of compounds, a normal fibroblast cell line (human periodontal ligament-PDL) is also included in this IC50 determination.
as §2, §3

The test system of a further series is HSC3. In words: MTT assay, HSC3 head and neck cancer cells. In kind it is cell-based. Particulars: for inhibition at 1 µM / inhibition at 10 µM / inhibition at 100 µM: HSC-3, 72 h, read-out: % cell growth inhibition; for inhibition at 1 µM / inhibition at 10 µM / inhibition at 100 µM / % cell growth inhibition: 72 h; for IC50: HSC3, 72 h.
Excerpt: as §1, §2, §3

The subject of the next series is MCF7. The experiment in a line: MTT assay, MCF7 breast cancer cells. In kind it is cell-based. Particulars: for IC50: MCF7, 72 h; for inhibition at 1 µM / inhibition at 10 µM / inhibition at 100 µM / % cell growth inhibition: 72 h; for inhibition at 1 µM / inhibition at 10 µM / inhibition at 100 µM: read-out: % cell growth inhibition.
Excerpt: as §1, §2, §3

The test system of series [1] is RKO cells. In words: Apoptosis evaluation by Annexin V/PI staining, RKO. It counts as cell-based. As to conditions: IC50 concentration, 72 h. As to the method:
(§4) To further examine the processes responsible for reduced cell viability, apoptosis was evaluated by Annexin V/Propidium Iodide (PI) double staining, as outlined in the experimental section by considering the best active compound 6i. […] Annexin V/PI staining detects very little increase in Annexin-positive cells; 6i-treated cells were stained with Annexin V and PI for fluorescence-activated cell sorting (FACS) analysis. The results establish that 6i may promote cell death by processes distinct from apoptosis, deserving further investigation into alternative pathways, such as autophagy or ferroptosis.
(§5) Floating dead cells and the attached cells were collected, washed with PBS, and resuspended in 100 μL of Annexin V solution for 30 min according to the manufacturer’s instruction (Annexin V-FITC Kit, Miltenyi Biotec, Gaithersburg, MD, USA, Catalog Number 130-092-052). After Annexin V staining, cells were stained shortly with PI to exclude the dead cells. The quantitative analysis for apoptosis was performed by FACS Accuri C6 Plus (BD BIOSCIENCES, Franklin Lakes, NJ, USA) flow cytometer. About 10,000 events were analyzed using the FlowJo software (version 10).

Series [2] relates to RKO cells. The experiment in a line: Cell cycle analysis (PI staining), RKO. In kind it is cell-based. As to conditions: IC50 concentration, 72 h. The procedure: (§6) In a subsequent set of experiments, we aimed to evaluate the effect of compound 6i on the cell cycle. Treatment with 6i led to a significant accumulation of HSC3 and RKO cells in the G2 phase (HSC3: control, 34.6% ± 3.2% vs. 6i, 46.4% ± 3.6%; RKO: control, 34.5% ± 2.9% vs. 6i, 64.2% ± 3.5%).
(§7) The supernatant with the floating dead cells and the attached cells from each well were collected and fixed in cold ethanol at −20 °C for 30 min [69]. Cells were stained with a Propidium iodide (PI) working solution (1 µg/mL PI and 10 µg/mL RNase A in PBS) for 30 min at 37 °C in the dark and then washed with PBS. Cell fluorescence was measured using the FACS Accuri C6 Plus (BD BIOSCIENCES, Franklin Lakes, NJ, USA) flow cytometer. Histograms of cell counts versus […] fluorescence were generated, and the distribution of cells throughout several cell cycle stages was assessed based on the mean fluorescence intensity values. About 10,000 events were examined utilizing FlowJo software (version 10).

The subject of series [3] is HSC3 cells. The experiment in a line: Cell cycle analysis (PI staining), HSC3. In kind it is cell-based. Particulars: HSC3, IC50 concentration, 72 h. The procedure:
as §6, §7

Series [4] has as its system HSC3 cells. The experiment in a line: Apoptosis evaluation by Annexin V/PI staining, HSC3. In kind it is cell-based. As to conditions: HSC3, IC50 concentration, 72 h. As to the method: as §4, §5
A further series deals with Hsp90. Further details: method as in PMID 20371713. As to conditions: against breast cancer; read-out: Hsp90 inhibition IC50; cited from earlier work.

We go through four compounds from article PMC11858597, “Synthesis, Anticancer Screening, and In Silico Evaluations of Thieno[2,3-c]pyridine Derivatives as Hsp90 Inhibitors” (Pharmaceuticals, 2025).

In the case of `CCOC(=O)c1c(NC(=O)CN2CCCCC2)sc2c1CCN(C(=O)OCC)C2` [6a], the inhibition (commonly the change of the read-out against control, counted positive when it falls) at 1 µM in the series with RKO (Homo sapiens, 1 µM) was 5.71%; with T47D (Homo sapiens, 1 µM) it was 9.31%; in the series with HSC3 (Homo sapiens, HSC3, 1 µM) it was 4.26%; in the series on MCF7 (Homo sapiens, MCF7, 1 µM), 2.96%. In addition, the inhibition at 10 µM amounted to 53% in the series on RKO (Homo sapiens, 10 µM); 38.6% with T47D (Homo sapiens, 10 µM); 59.8% in the series on HSC3 (Homo sapiens, HSC3, 10 µM); 39.5% with MCF7 (Homo sapiens, MCF7, 10 µM). Moreover, the inhibition at 100 µM is 93.5% in the series on RKO (Homo sapiens, 100 µM); 88.1% in the series with T47D (Homo sapiens, 100 µM); 92.6% with HSC3 (Homo sapiens, HSC3, 100 µM); 91.6% in the series on MCF7 (Homo sapiens, MCF7, 100 µM). Moreover, the IC50 – broadly, the concentration that gives 50% inhibition – is 24.4 ± 7.2 µM with RKO (Homo sapiens); 97.2 ± 4.4 µM with T47D (Homo sapiens); > 100 µM in the series with PDL (Homo sapiens, Fibroblast); 14.5 ± 4.3 µM in the series on HSC3 (Homo sapiens, HSC-3); 73.7 ± 4.3 µM in the series with MCF7 (Homo sapiens). The “toxicity to normal fibroblast cell lines, PDL” value in the series with PDL is given as “no toxicity”. Besides, the “% cell growth inhibition” value in the series on MCF7 (MCF7, 1 µM) was “weak inhibition”.
On to `CCOC(=O)c1c(NC(=O)CN2CCSCC2)sc2c1CCN(C(=O)OCC)C2` [6i, Diethyl 2-(2-thiomorpholinoacetamido)-4,7-dihydrothieno[2,3-c]pyridine-3,6(5H)-dicarboxylate], for which the inhibition at 1 µM in the series on RKO (Homo sapiens, 1 µM) was 5.17%; in the series with T47D (Homo sapiens, 1 µM), 1.9%; in the series with HSC3 (Homo sapiens, HSC3, 1 µM), 14.8%; with MCF7 (Homo sapiens, MCF7, 1 µM), 1.53%. In addition, the inhibition at 10 µM in the series with RKO (Homo sapiens, 10 µM) is 55.4%; in the series on T47D (Homo sapiens, 10 µM), 35.3%; in the series with HSC3 (Homo sapiens, HSC3, 10 µM), 62.3%; with MCF7 (Homo sapiens, MCF7, 10 µM) it was 39.1%. Further, the inhibition at 100 µM in the series with RKO (Homo sapiens, 100 µM) is 92.5%; in the series with T47D (Homo sapiens, 100 µM) it was 83.9%; with HSC3 (Homo sapiens, HSC3, 100 µM) it was 94%; with MCF7 (Homo sapiens, MCF7, 100 µM), 95.3%. Moreover, the IC50 with RKO (Homo sapiens) was 12.4 ± 1.9 µM; in the series with T47D (Homo sapiens), 11.7 ± 1.1 µM; in the series on PDL (Homo sapiens, Fibroblast), > 100 µM; in the series on HSC3 (Homo sapiens, HSC-3), 10.8 ± 3.9 µM; in the series on MCF7 (Homo sapiens), 16.4 ± 0.2 µM. Besides, the “proportion of apoptotic cells with positive Annexin V staining” value with RKO cells [1] and in the series with HSC3 cells [4] was “significantly lower” in each case. The “toxicity to normal fibroblast cell lines, PDL” value with PDL was “no toxicity”. In addition, the “% cell growth inhibition” value in the series on HSC3 (HSC3, 100 µM, 100 µM) is 94.04%; in the series with MCF7 (MCF7, 1 µM) it was “weak inhibition”. For the same compound, the “cells in the G2 phase” value in the series on RKO cells [2] (control 34.5% ± 2.9%) is on record as 64.2% ± 3.5%; in the series on HSC3 cells [3] (control 34.6% ± 3.2%), 46.4% ± 3.6%. Moreover, the “proportion of cells in the G1 and S phases” value in the series with RKO cells [2] (vs control) and in the series on HSC3 cells [3] (vs control) was “markedly reduced” each time.
In the case of `N.N.[Cl][Pt][Cl]` [Cisplatin, reference compound], the “% cell growth inhibition” value in the series on RKO (1 µM) came out at 46.06%; with RKO (10 µM), 92.77%; with RKO (100 µM), 95.04%; in the series on T47D (1 µM), 29.09%; in the series with T47D (10 µM) it was 89.65%; in the series with T47D (100 µM), 98.20%. Moreover, the “% cell growth inhibition” value was 29.33% in the series with HSC3 (HSC3, 1 µM); 84.74% with HSC3 (HSC3, 10 µM); 97.87% with HSC3 (HSC3, 100 µM); 11.23% with MCF7 (MCF7, 1 µM); 57.32% with MCF7 (MCF7, 10 µM); 97.41% with MCF7 (MCF7, 100 µM). In addition, the IC50 in the series on RKO was determined as 1.7 ± 0.4 µM; in the series on T47D, 2.6 ± 0.6 µM; in the series on PDL it was 15.5 ± 2.1 µM; in the series on HSC3 it was 2.7 ± 0.2 µM; in the series on MCF7 it was 5.8 ± 0.9 µM.
For the compound `CCNC(=O)c1cc2c(-c3cc(OCCN4CCCC4)c(Cl)cc3Cl)nc(N)nc2s1` [NVP-BEP800], in the series with Hsp90, the half-inhibitory concentration (IC50) is 0.058 µM.
